Data as given in the NIST ThermoML archive (doi:10.1016/j.jct.2015.12.031).

Experiments:
[1] = mn = molality of the nth substance listed, in mol/kg; settings: 86.5 kPa, Liquid, m2 = 0; for speed of sound: Frequency=3 MHz, Sing-around technique in a fixed-path interferometer; for mass density: Vibrating tube method
[2] = refractive index (Na D-line) (dimensionless); mn = molality of the nth substance listed, in mol/kg; settings: 86.5 kPa, Liquid, Standard Abbe refractometry, m2 = 0
[3] = Liquid; for speed of sound: Sing-around technique in a fixed-path interferometer; for mass density: Vibrating tube method
[4] = refractive index (Na D-line) (dimensionless); settings: Liquid, Standard Abbe refractometry

CCCCCCCC [octane] + c1ccsc1
Settings | mass density, [1] [kg/m3] | refractive index, [2] | speed of sound, [1] [m/s]
288.15 K | 706.994 | 1.3998 | 1214.5
293.15 K | 702.995 | 1.3973 | 1193.3
298.15 K | 698.923 | 1.3949 | 1172.4
303.15 K | 694.878 | 1.3924 | 1151.5

CCCCCCn1cc[n+](C)c1.[Br-] [3-hexyl-1-methyl-1H-imidazolium bromide]
[3], 86.5 kPa, Frequency=3 MHz
Settings | speed of sound [m/s]
288.15 K | 1639.4
293.15 K | 1610.4
298.15 K | 1587.1
303.15 K | 1568.7

86.5 kPa
Settings | mass density, 288.15 K [kg/m3] | mass density, 293.15 K [kg/m3] | mass density, 298.15 K [kg/m3] | mass density, 303.15 K [kg/m3] | refractive index, 288.15 K | refractive index, 293.15 K | refractive index, 298.15 K | refractive index, 303.15 K
[3] | 1231.02 | 1227.43 | 1223.74 | 1220.35 | – | – | – | –
[4] | – | – | – | – | 1.5282 | 1.5268 | 1.5254 | 1.5237

CCCCCCCC [octane]
[3], 86.5 kPa, Frequency=3 MHz
Settings | speed of sound [m/s]
288.15 K | 1214.5
293.15 K | 1193.3
298.15 K | 1172.4
303.15 K | 1151.5

86.5 kPa
Settings | mass density, 288.15 K [kg/m3] | mass density, 293.15 K [kg/m3] | mass density, 298.15 K [kg/m3] | mass density, 303.15 K [kg/m3] | refractive index, 288.15 K | refractive index, 293.15 K | refractive index, 298.15 K | refractive index, 303.15 K
[3] | 706.994 | 702.995 | 698.923 | 694.878 | – | – | – | –
[4] | – | – | – | – | 1.3998 | 1.3973 | 1.3949 | 1.3924

c1ccsc1 [thiophene]
101.33 kPa
Settings | mass density, [3] [kg/m3] | refractive index, [4] | speed of sound, [3] [m/s]
298.15 K | 1058.56 | 1.5252 | 1279
303.15 K | – | – | 1258.7

CCCCCCCCn1cc[n+](C)c1.[Br-] [1-methyl-3-octylimidazolium bromide]
[3], 86.5 kPa, Frequency=3 MHz
Settings | speed of sound [m/s]
288.15 K | 1605.2
293.15 K | 1581.9
298.15 K | 1561.9
303.15 K | 1542.8

86.5 kPa
Settings | mass density, 288.15 K [kg/m3] | mass density, 293.15 K [kg/m3] | mass density, 298.15 K [kg/m3] | mass density, 303.15 K [kg/m3] | refractive index, 288.15 K | refractive index, 293.15 K | refractive index, 298.15 K | refractive index, 303.15 K
[3] | 1179.37 | 1176.17 | 1172.98 | 1169.86 | – | – | – | –
[4] | – | – | – | – | 1.525 | 1.5236 | 1.5221 | 1.5206
